# Measurements: patent publication US11077126B2 (priority 2017, dated 2021)
# Where two headings read alike, the source gives them in different places.
# Test system: mouse bone marrow polychromatic erythrocytes
# Conditions: mouse, in vivo; for Number of Micronuclei / P/N / P/N Ratio: po
# Experimental: It is the object to test the mutagenic potential of drugs on mammalian somatic cells, and provide a basis for clinical drug use.
# An appropriate amount of 0.5% sodium carboxymethyl cellulose solution was added to prepare a suspension, and the suspension was stored in a refrigerator at 4° C. The negative control was an equal amount of 0.5% sodium carboxymethylcellulose solution. The positive control was prepared as follows: an appropriate amount of cyclophosphamide used for injection was weighed, and was dissolved in normal saline at the time of use to prepare 60 mg/kg of solution.
# 6 mice per group. The doses, number of administrations, and bone marrow sampling time are selected in the pre-test.
# The dose is reduced by ½ LD50 as the standard, and the number of administrations is one time. According to the pre-test results, the bone marrow sampling time is to sample 24 hours after administration.
# At least three dose groups, respectively: 2,000 mg/kg, 1,000 mg/kg, 500 mg/kg
# The number of administrations: one-time oral administration.
# Oral (Intragastric) administration.
# 2.4.3 Bone marrow sampling time: 24 hours after administration.
# The mice were sacrificed by cervical dislocation. Then the sternums were taken to remove the muscles thereon and the attachments were wiped with a gauze. Direct smear of bone marrow was used: the sternums were cut to expose the medullary cavity, and bone marrow was extruded and mixed well with a drop of calf serum on a slide beforehand as a push piece. After being dried, the slide was fixed in methanol for 10 minutes, and then after it was dried, it was then subjected to Giemsa staining. Each mouse was microscopically examined for about 1,000 polychromatic erythrocytes with intact contours of erythrocytes, and the frequency of occurrence of micronuclei and the ratio of polychromatic erythrocytes to erythrocytes were counted.
substance,measurement,setting,value
Carrimycin,conclusion of micronucleus test: chromosomal cleavage,,is not a chromosomal cleavage agent
same,conclusion of micronucleus test: effect on the bone marrow,,no inhibitory effect on the bone marrow
same,micronucleus rate of polychromatic erythrocytes compared with the negative control group,,do not have significant increase
same,Number of Micronuclei,500 mg/kg,18
same,P/N,500 mg/kg,0.34
same,P/N Ratio,500 mg/kg,0.34
same,Number of Micronuclei,1000 mg/kg,16
same,P/N,1000 mg/kg,0.33
same,P/N Ratio,1000 mg/kg,0.33
same,Number of Micronuclei,2000 mg/kg,21
same,P/N,2000 mg/kg,0.38
same,P/N Ratio,2000 mg/kg,0.38
